Legend:
[1] = target: T1, human E3 ligase component cereblon (CRBN) (Homo sapiens, UniProt Q96SW2); experiment: Cereblon (CRBN) target engagement, NanoBRET TE Intracellular E3 Ligase Assay in transfected HEK-293T cells; conditions: read-out: CRBN Binding EC50
T1 construct: host or cells: HEK293T
How it was run: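 HEK-293T cells transiently co-transfected with NanoLuc-CRBN (N-terminal NanoLuc) and DDB1 were dosed with CRBN tracer and an 11-point compound series (typically 10 μM to 100 pM) for 2 h at 37° C. BRET at 450/610 nm gave IC50 by four-parameter logistic fit.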

IKZF3 (Aiolos) = target: T2, IKZF3 (Aiolos) (Homo sapiens, UniProt Q9UKT9); experiment: IKZF3 reporter degradation assay (HEK 293T IKZF3-mNeonGreen reporter cell line); format: cell-based; conditions: HEK 293T IKZF3-mNeonGreen reporter, 24 hours incubation
T2 construct: Leu-Asp junction (codons ctcgac before the linker); mScarlet (behind P2A) (C, cleaved yes); expressed in transfected cells
How it was run: (§1)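 Clonal HEK 293T lines stably expressing the IKZF-(GGGGS)3-mNeonGreen-P2A-mScarlet reporter were treated with compound for 24 h at 37 °C (≤0.5% DMSO, quadruplicate). Live imaging scored percent mNeonGreen-positive cells, with mScarlet used for segmentation. DC50 came from four-parameter logistic fits.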

IKZF2 (Helios) [2] = target: T3, IKZF2 (Helios) (Homo sapiens, UniProt Q9UKS7); experiment: IKZF2 reporter degradation assay (HEK 293T IKZF2-mNeonGreen reporter cell line); format: cell-based; conditions: HEK 293T IKZF2-mNeonGreen reporter, 24 hours incubation
T3 construct: Leu-Asp junction (codons ctcgac before the linker); mScarlet (behind P2A) (C, cleaved yes); expressed in transfected cells
How it was run: as §1

IKZF1 (Ikaros) = target: T4, IKZF1 (Ikaros) (Homo sapiens, UniProt Q13422); experiment: IKZF1 reporter degradation assay (HEK 293T IKZF1-mNeonGreen reporter cell line); format: cell-based; conditions: HEK 293T IKZF1-mNeonGreen reporter, 24 hours incubation
T4 construct: mScarlet (behind P2A) (C, cleaved yes); expressed in transfected cells
Excerpt: Polycistronic plasmids were constructed for the mammalian expression of fluorescent reporter fusions of human transcription factors IKZF1 (Ikaros), IKZF2 (Helios), and IKZF3 (Aiolos). The respective protein sequences had their C-terminal end joined to a GGGGS linker repeated three times followed by mNeonGreen, P2A sequence, and mScarlet. The DNA sequences of the open reading frames are as follows:
IKZF1, IKZF2, and IKZF3 constructs were cloned into the UCOE Hygromycin expression vectors (Millipore Sigma). Reporter constructs were transfected using cationic lipid reagents into adherent HEK 293T cells and stable integrants were selected by treatment with 200 μg/mL hygromycin B. Clonal populations were obtained from the population of stable integrants either by limiting dilution or fluorescence activated cell sorting.
The clonal stable cell lines were maintained under constant 200 μg/mL hygromycin B selection while being passaged for use in the degradation assays. […] The fluorescence intensity of the IKZF1/2/3-mNeonGreen (FITC channel) and mScarlet (PE channel) reporters were routinely analyzed by flow cytometry to confirm consistent expression levels between experiments.
The IKZF1/IKZF2/IKZF3 degradation assays were carried out by harvesting the HEK 293T reporter cell lines and resuspending the cells in media formulated for reduced background fluorescence (FluoroBrite; Thermo Fisher). The respective cell lines were seeded at a density of 4000 cells/well into black-walled 384-well optical grade assay tissue culture plates. The cells were incubated overnight at 37° C. to allow for attachment to the assay plate. Dilutions of the compounds were prepared in DMSO from 10 mM compound stocks. The assay plates were treated with appropriate concentrations of the compounds by dispensing the DMSO dilutions in quadruplicate wells with an upper limit of 0.5% final DMSO.
After 24 hours incubation with the compounds, the assay plates were imaged on an ImageXpress Pico microscopy system (cells maintained at 37° C. during imaging) to obtain the fluorescent readouts. The assay plates were imaged in the FITC and Tetramethylrhodamine (TRITC) channels to obtain the mNeonGreen fluorescence intensity (reporter degradation data) and mScarlet fluorescence intensity (for cell segmentation). 293T-IKZF1 and 293T-IKZF3 reporter cell lines were imaged with exposures of 500 milliseconds (ms) for both FITC and TRITC channels, while the 293T-IKZF2 reporter cell line was imaged with exposures of 1000 ms for FITC and 1250 ms for TRITC. The resulting data was analyzed with Cell Reporter Xpress software using the 2-channel cell scoring analysis with a “percent positive” readout. The TRITC channel was selected for the “nuclei” segmentation with a threshold of 20 while the FITC channel was selected for the “Marker 1” segmentation and a threshold of 100 for the IKZF1 and IKZF3 reporter lines. […] The minimum segmentation width was set to 6 micrometers and the maximum segmentation width was set to 15 micrometers for all cell lines. The DC50 calculations were determined by regression to best fit four-parameter logistic curves using GraphPad Prism.

IKZF2 (Helios) [3] = target: T5, IKZF2 (Helios) (Homo sapiens, UniProt Q96SW2+Q9UKS7); experiment: IKZF2 reporter degradation assay (HEK 293T IKZF2-mNeonGreen reporter cell line); format: cell-based; conditions: @ 1 μM, HEK 293T IKZF2-mNeonGreen reporter, 24 hours incubation; for inhibition at 1 µM: HEK-293T, 24 h
T5 construct: Leu-Asp junction (codons ctcgac before the linker); mScarlet (behind P2A) (C, cleaved yes); expressed in transfected cells
How it was run: as §1

T1 sequence (Q96SW2 whole entry): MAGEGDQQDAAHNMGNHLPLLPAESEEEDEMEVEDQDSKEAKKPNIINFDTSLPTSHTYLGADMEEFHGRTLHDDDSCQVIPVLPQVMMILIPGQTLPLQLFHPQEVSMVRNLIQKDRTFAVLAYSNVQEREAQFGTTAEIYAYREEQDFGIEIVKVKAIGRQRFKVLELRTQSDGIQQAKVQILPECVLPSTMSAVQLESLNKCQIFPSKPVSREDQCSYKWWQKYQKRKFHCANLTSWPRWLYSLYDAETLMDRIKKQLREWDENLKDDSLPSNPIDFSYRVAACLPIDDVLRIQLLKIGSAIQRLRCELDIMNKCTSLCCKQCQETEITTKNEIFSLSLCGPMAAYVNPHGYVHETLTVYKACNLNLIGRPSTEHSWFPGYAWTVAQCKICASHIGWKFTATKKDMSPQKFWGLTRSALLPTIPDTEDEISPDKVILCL
T1 sequence (Q16531 whole entry partner): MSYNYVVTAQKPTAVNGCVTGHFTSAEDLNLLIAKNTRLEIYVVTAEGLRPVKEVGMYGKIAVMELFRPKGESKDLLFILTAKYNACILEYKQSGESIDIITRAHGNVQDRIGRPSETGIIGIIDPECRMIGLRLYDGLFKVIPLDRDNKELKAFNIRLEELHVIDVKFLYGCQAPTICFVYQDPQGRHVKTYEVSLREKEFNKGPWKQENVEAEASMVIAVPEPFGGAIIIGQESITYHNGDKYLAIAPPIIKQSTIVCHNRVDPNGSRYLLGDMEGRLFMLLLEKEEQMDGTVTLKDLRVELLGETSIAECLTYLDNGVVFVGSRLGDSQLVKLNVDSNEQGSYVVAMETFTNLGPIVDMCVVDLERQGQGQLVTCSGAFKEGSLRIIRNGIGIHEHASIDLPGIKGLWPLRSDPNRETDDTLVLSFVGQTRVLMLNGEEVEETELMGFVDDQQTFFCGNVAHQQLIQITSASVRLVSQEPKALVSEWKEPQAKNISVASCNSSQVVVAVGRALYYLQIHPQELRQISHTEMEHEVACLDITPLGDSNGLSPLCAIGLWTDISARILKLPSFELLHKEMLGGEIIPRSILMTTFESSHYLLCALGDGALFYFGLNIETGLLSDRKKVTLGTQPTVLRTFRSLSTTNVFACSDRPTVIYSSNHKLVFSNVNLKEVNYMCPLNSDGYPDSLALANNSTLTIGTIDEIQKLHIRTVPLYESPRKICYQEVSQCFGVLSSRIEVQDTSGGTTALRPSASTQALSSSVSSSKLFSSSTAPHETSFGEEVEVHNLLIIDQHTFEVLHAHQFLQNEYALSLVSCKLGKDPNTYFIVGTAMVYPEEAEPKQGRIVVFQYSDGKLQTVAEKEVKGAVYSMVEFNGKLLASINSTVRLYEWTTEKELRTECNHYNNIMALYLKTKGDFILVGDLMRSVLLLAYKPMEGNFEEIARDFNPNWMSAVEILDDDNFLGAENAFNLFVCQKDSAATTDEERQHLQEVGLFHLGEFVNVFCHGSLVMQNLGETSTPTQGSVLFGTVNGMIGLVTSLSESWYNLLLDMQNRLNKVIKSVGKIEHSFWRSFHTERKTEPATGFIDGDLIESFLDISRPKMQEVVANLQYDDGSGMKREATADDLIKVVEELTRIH
T4 sequence (Q96SW2 whole entry partner): as the sequence (Q96SW2 whole entry) above
T4 sequence (Q16531 whole entry partner): as the sequence (Q16531 whole entry partner) above
T4 sequence (Q13422 whole entry): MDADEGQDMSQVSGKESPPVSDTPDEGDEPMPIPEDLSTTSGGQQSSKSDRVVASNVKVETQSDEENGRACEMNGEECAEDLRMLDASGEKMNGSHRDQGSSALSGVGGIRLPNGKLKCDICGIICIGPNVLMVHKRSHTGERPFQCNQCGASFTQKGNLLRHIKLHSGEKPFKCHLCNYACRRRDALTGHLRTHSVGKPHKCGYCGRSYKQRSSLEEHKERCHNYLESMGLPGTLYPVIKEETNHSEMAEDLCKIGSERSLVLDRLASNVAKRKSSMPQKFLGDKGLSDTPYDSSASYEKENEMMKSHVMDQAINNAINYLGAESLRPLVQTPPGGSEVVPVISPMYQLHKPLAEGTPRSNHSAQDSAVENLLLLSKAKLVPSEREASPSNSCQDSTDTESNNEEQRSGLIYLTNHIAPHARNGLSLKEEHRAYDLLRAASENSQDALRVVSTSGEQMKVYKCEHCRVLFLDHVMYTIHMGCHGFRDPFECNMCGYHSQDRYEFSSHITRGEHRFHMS
T2 sequence (Q96SW2 whole entry partner): as the sequence (Q96SW2 whole entry) above
T2 sequence (Q16531 whole entry partner): as the sequence (Q16531 whole entry partner) above
T2 sequence (Q9UKT9 whole entry): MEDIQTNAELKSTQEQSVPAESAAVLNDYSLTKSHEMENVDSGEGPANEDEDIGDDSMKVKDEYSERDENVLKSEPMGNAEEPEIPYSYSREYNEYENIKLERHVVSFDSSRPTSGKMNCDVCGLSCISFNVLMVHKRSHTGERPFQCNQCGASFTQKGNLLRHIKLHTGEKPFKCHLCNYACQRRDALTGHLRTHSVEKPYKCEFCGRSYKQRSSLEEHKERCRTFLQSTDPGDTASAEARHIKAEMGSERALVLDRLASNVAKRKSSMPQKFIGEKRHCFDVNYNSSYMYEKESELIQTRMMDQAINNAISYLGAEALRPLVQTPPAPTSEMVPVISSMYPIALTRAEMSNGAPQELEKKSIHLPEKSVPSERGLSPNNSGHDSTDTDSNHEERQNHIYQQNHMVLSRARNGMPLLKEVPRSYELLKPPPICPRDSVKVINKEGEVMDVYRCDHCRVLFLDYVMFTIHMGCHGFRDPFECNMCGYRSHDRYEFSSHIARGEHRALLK
T3 sequence (Q9UKS7 whole entry): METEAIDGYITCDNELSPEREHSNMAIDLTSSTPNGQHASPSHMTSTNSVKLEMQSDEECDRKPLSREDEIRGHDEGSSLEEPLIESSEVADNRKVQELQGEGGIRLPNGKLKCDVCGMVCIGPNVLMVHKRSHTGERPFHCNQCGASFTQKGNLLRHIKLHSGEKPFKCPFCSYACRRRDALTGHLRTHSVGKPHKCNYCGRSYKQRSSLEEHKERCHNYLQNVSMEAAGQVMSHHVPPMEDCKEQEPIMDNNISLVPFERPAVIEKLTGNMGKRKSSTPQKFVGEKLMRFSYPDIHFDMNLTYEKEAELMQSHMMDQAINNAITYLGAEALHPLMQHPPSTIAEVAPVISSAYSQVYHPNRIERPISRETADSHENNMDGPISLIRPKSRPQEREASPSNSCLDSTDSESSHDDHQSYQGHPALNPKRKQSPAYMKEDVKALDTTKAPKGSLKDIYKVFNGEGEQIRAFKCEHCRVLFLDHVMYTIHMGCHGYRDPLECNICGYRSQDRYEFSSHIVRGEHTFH
T3 sequence (Q96SW2 whole entry, further chain): as the sequence (Q96SW2 whole entry) above
T3 sequence (Q16531 whole entry partner): as the sequence (Q16531 whole entry partner) above
T5 sequence (Q9UKS7 whole entry): as the sequence (Q9UKS7 whole entry) above
T5 sequence (Q96SW2 whole entry): as the sequence (Q96SW2 whole entry) above
T5 sequence (Q16531 whole entry partner): as the sequence (Q16531 whole entry partner) above

| SMILES | EC50 [1] | DC50 (IKZF3 (Aiolos)) | DC50 (IKZF2 (Helios) [2]) | DC50 (IKZF1 (Ikaros)) | inhibition at 1 µM (IKZF2 (Helios) [3]) | IKZF2 % Degradation @ 1 μM (IKZF2 (Helios) [3]) |
| --- | --- | --- | --- | --- | --- | --- |
| O=C1NC(=O)C2(N3Cc4cc(O[C@H]5CCCC[C@@H]5N5CC(c6ncc(Cl)cn6)C5)ccc4C3=O)CC1C2 (racemic) [Compound 172-B, Rac-1-(5-(((trans)-2-(3-(5-chloropyrimidin-2-yl)azetidin-1-yl)cyclohexyl)oxy)-1-oxoisoindolin-2-yl)-3-azabicyclo[3.1.1]heptane-2,4-dione] | > 10 µM | > 30 µM | > 30 µM | > 30 µM | – | – |
| Cc1cnc(C2CN([C@H]3CCCC[C@@H]3Oc3ccc4c(c3)CN(C3CCC(=O)NC3=O)C4=O)C2)o1 (mixture of isomers) [Compound 175-B, Rac-3-(5-(((trans)-2-(3-(5-methyloxazol-2-yl)azetidin-1-yl)cyclohexyl)oxy)-1-oxoisoindolin-2-yl)piperidine-2,6-dione] | 0.022 µM | > 30 µM | > 30 µM | > 30 µM | – | – |
| COc1ccc(C2CN([C@H]3CCCC3Oc3ccc4c(c3)CN(C3CCC(=O)NC3=O)C4=O)C2)cn1 (mixture of isomers) [Compound 202-B, Rac-3-(5-(((trans)-2-(3-(6-methoxypyridin-3-yl)azetidin-1-yl)cyclopentyl)oxy)-1-oxoisoindolin-2-yl)piperidine-2,6-dione] | 0.029 µM | > 30 µM | > 30 µM | > 30 µM | – | – |
| O=C1CCC(N2Cc3cc(O[C@H]4CCCC[C@@H]4N4CC(c5cncc(Cl)c5)C4)ccc3C2=O)C(=O)N1 (mixture of isomers) [Compound 168-B, Rac-3-(5-(((trans)-2-(3-(5-chloropyridin-3-yl)azetidin-1-yl)cyclohexyl)oxy)-1-oxoisoindolin-2-yl)piperidine-2,6-dione] | 0.048 µM | > 30 µM | > 30 µM | > 30 µM | – | – |
| O=C1NC(=O)C2(N3Cc4cc(O[C@@H]5CCCC[C@@H]5N5CC(c6ncc(Cl)cn6)C5)ccc4C3=O)CC1C2 (racemic) [Compound 171-B, Rac-1-(5-(((cis)-2-(3-(5-chloropyrimidin-2-yl)azetidin-1-yl)cyclohexyl)oxy)-1-oxoisoindolin-2-yl)-3-azabicyclo[3.1.1]heptane-2,4-dione] | > 10 µM | > 30 µM | > 30 µM | ≥ 30 µM | – | – |
| O=C1CCC(N2Cc3cc(OC4CCC[C@@H]4N4CC(c5cccnc5)C4)ccc3C2=O)C(=O)N1 (mixture of isomers) [Compound 208-B, Rac-3-(1-oxo-5-(((trans)-2-(3-(pyridin-3-yl)azetidin-1-yl)cyclopentyl)oxy)isoindolin-2-yl)piperidine-2,6-dione] | 0.076 µM | > 30 µM | > 30 µM | > 30 µM | – | – |
| O=C1CCC(N2Cc3cc(O[C@H]4CCCC4N4CC(c5ccnc6ccccc56)C4)ccc3C2=O)C(=O)N1 (mixture of isomers) [Compound 195-B, Rac-3-(1-oxo-5-(((trans)-2-(3-(quinolin-4-yl)azetidin-1-yl)cyclopentyl)oxy)isoindolin-2-yl)piperidine-2,6-dione] | 0.024 µM | > 30 µM | > 30 µM | > 30 µM | – | – |
| O=C1CCC(N2Cc3cc(OC4CCC[C@@H]4N4CC(c5ccncc5)C4)ccc3C2=O)C(=O)N1 (mixture of isomers) [Compound 206-B, Rac-3-(1-oxo-5-(((trans)-2-(3-(pyridin-4-yl)azetidin-1-yl)cyclopentyl)oxy)isoindolin-2-yl)piperidine-2,6-dione] | 0.071 µM | > 30 µM | > 30 µM | > 30 µM | – | – |
| O=C1CCC(N2Cc3cc(OC4CCC[C@@H]4N4CC(c5cncnc5)C4)ccc3C2=O)C(=O)N1 (mixture of isomers) [Compound 197-B, Rac-3-(1-oxo-5-(((trans)-2-(3-(pyrimidin-5-yl)azetidin-1-yl)cyclopentyl)oxy)isoindolin-2-yl)piperidine-2,6-dione] | 0.138 µM | > 30 µM | > 30 µM | > 30 µM | – | – |
| O=C1CCC(N2Cc3cc(OC4CCC[C@@H]4N4CC(c5ccccn5)C4)ccc3C2=O)C(=O)N1 (mixture of isomers) [Compound 210-B, Rac-3-(1-oxo-5-(((trans)-2-(3-(pyridin-2-yl)azetidin-1-yl)cyclopentyl)oxy)isoindolin-2-yl)piperidine-2,6-dione] | 0.122 µM | > 30 µM | > 30 µM | > 30 µM | – | – |
| O=C1CCC(N2Cc3cc(OC4CCCC4N4CC(c5c[nH]c6ccccc56)C4)ccc3C2=O)C(=O)N1 (stereo not drawn) [Compound 181-B, 3-(5-((2-(3-(1H-indol-3-yl)azetidin-1-yl)cyclopentyl)oxy)-1-oxoisoindolin-2-yl)piperidine-2,6-dione] | 0.013 µM | > 30 µM | 0.034 µM | – | < 30% | – |
| O=C1CCC(N2Cc3cc(O[C@@H]4CCCC[C@@H]4N4CC(c5ncncc5Cl)C4)ccc3C2=O)C(=O)N1 (mixture of isomers) [Compound 139-B, Rac-3-(5-(((cis)-2-(3-(5-chloropyrimidin-4-yl)azetidin-1-yl)cyclohexyl)oxy)-1-oxoisoindolin-2-yl)piperidine-2,6-dione] | 0.035 µM | > 30 µM | 0.033 µM | – | 62.4% | – |
| O=C1CCC(N2Cc3cc(O[C@@H]4CCCC[C@@H]4N4CC(c5ccncc5F)C4)ccc3C2=O)C(=O)N1 (mixture of isomers) [Compound 153-B, Rac-3-(5-(((cis)-2-(3-(3-fluoropyridin-4-yl)azetidin-1-yl)cyclohexyl)oxy)-1-oxoisoindolin-2-yl)piperidine-2,6-dione] | 0.032 µM | > 30 µM | 0.016 µM | – | 73.4% | – |
| O=C1CCC(N2Cc3cc(O[C@H]4CCCC[C@@H]4N4CC(c5ccc6ccccc6n5)C4)ccc3C2=O)C(=O)N1 (single isomer, unassigned) [Compound 90-B] | 0.006 µM | > 30 µM | 0.001 µM | – | – | 87.1% |
| O=C1CCC(N2Cc3cc(O[C@H]4CCCC[C@@H]4N4CC(c5cncc(Cl)c5)C4)ccc3C2=O)C(=O)N1 (single isomer, unassigned) [Compound 116-B] | 0.006 µM | > 30 µM | 0.004 µM | – | 73.7% | – |
| CC1(C(=O)N2CCC(C3CN([C@H]4CCCC[C@@H]4Oc4ccc5c(c4)CN(C4CCC(=O)NC4=O)C5=O)C3)CC2)CCC1 (stereo partly drawn) [Compound 25-A, 3-(5-(((1S,2S)-2-(3-(1-(1-methylcyclobutane-1-carbonyl)piperidin-4-yl)azetidin-1-yl)cyclohexyl)oxy)-1-oxoisoindolin-2-yl)piperidine-2,6-dione] | 0.004 µM | > 30 µM | 0.001 µM | – | 84.4% | – |
| O=C1CCC(N2Cc3cc(O[C@H]4CCCC[C@@H]4N4CC(c5ncc(C6CC6)cn5)C4)ccc3C2=O)C(=O)N1 (single isomer, unassigned) [Compound 135-B] | 0.003 µM | > 30 µM | 0.013 µM | – | – | 77.7% |
| O=C1CCC(N2Cc3cc(O[C@@H]4CCCC[C@H]4N4CC(c5ccc(C(F)(F)F)nc5)C4)ccc3C2=O)C(=O)N1 (single isomer, unassigned) [Compound 125-B] | 0.065 µM | > 30 µM | 0.083 µM | – | 50.9% | – |

From patent US20250100996A1, “HETEROCYCLOALKYL AND HETEROARYL COMPOUNDS AND PHARMACEUTICAL COMPOSITIONS THAT MODULATE IKZF2” (Plexium, Inc., priority 2021, published 2025)
